Test system: 653999-131-R-J2-PDC complex spheroid viability
Experiment: Anticancer human tumor 653999-131-R-J2-PDC patient-derived lung adenocarcinoma cell line growth inhibition
Conditions: for IC50: curve of first compound; for viability, T/C: stronger effect = lower value
Method in brief: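 Complex spheroids of tumor cells with HUVEC and human MSCs, exposed to iadademstat combined with other agents. Each agent tested in half-log steps from near clinical Cmax (else 10 microM top), DMSO ≤0.25%.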

[1] = second compound 0.1 µM, first compound 0.0316 µM
[2] = second compound 0.1 µM, first compound 0.1 µM
[3] = second compound 0.1 µM, first compound 0.316 µM
[4] = second compound 0.1 µM, first compound 1 µM
[5] = second compound 0.316 µM, first compound 0.0316 µM
[6] = second compound 0.316 µM, first compound 0.1 µM
[7] = second compound 0.316 µM, first compound 0.316 µM
[8] = second compound 0.316 µM, first compound 1 µM
[9] = second compound 1 µM, first compound 0.0316 µM
[10] = second compound 1 µM, first compound 0.1 µM
[11] = second compound 1 µM, first compound 0.316 µM
[12] = second compound 1 µM, first compound 1 µM
[13] = second compound 3.16 µM, first compound 0.0316 µM
[14] = second compound 3.16 µM, first compound 0.1 µM
[15] = second compound 3.16 µM, first compound 0.316 µM
[16] = second compound 3.16 µM, first compound 1 µM
[17] = second compound 10 µM, first compound 0.0316 µM
[18] = second compound 10 µM, first compound 0.1 µM
[19] = second compound 10 µM, first compound 0.316 µM
[20] = second compound 10 µM, first compound 1 µM
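Further: spheroids exposed to agents for seven days before readout.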

Row | Compound | IC50 (second compound 0.1 µM) [nM] | IC50 (second compound 0.316 µM) [nM] | IC50 (second compound 1 µM) [nM] | IC50 (second compound 3.16 µM) [nM] | IC50 (second compound 10 µM) [nM] | viability, T/C [1] [%] | viability, T/C [2] [%] | viability, T/C [3] [%] | viability, T/C [4] [%] | viability, T/C [5] [%] | viability, T/C [6] [%] | viability, T/C [7] [%] | viability, T/C [8] [%] | viability, T/C [9] [%] | viability, T/C [10] [%] | viability, T/C [11] [%] | viability, T/C [12] [%] | viability, T/C [13] [%] | viability, T/C [14] [%] | viability, T/C [15] [%] | further results
1 | CC1COCCN1c1cc(-c2ccnn2C)c2ccnc(-c3ccn[nH]3)c2n1 (stereo not given) + NC1CCC(NC2CC2c2ccccc2)CC1 | 23 | 21.8 | 35.3 | 24.4 | 31.8 | 42.8 | 33 | 32.3 | 27.1 | 48.1 | 32.3 | 28.1 | 27.7 | 52 | 35.9 | 33.9 | 27.9 | 44.8 | 37.3 | 31.1 | viability, T/C (second compound 0.1 µM, first compound 0.00316 µM): 85.9%; viability, T/C (second compound 0.1 µM, first compound 0.01 µM): 67.7%; viability, T/C (second compound 0.316 µM, first compound 0.00316 µM): 79.6%; viability, T/C (second compound 0.316 µM, first compound 0.01 µM): 59%; viability, T/C (second compound 1 µM, first compound 0.00316 µM): 78.1%; viability, T/C (second compound 1 µM, first compound 0.01 µM): 67.7%; viability, T/C (second compound 3.16 µM, first compound 0.00316 µM): 92.2%; viability, T/C (second compound 3.16 µM, first compound 0.01 µM): 64.1%; viability, T/C [16]: 27.8%; viability, T/C (second compound 10 µM, first compound 0.00316 µM): 84.4%; viability, T/C (second compound 10 µM, first compound 0.01 µM): 68.1%; viability, T/C [17]: 50.9%; viability, T/C [18]: 36.5%; viability, T/C [19]: 33.5%; viability, T/C [20]: 30.1%
2 | CC1COCCN1c1cc(C2(S(C)(=N)=O)CC2)nc(-c2ccnc3[nH]ccc23)n1 (stereo not given) + NC1CCC(NC2CC2c2ccccc2)CC1 | 736 | 832 | 840 | 674 | 698 | 104 | 81.3 | 63.7 | 46.4 | 94.1 | 80.1 | 73.8 | 45.5 | 102 | 81 | 67.4 | 46.3 | 101 | 89.4 | 68.9 | viability, T/C (second compound 0.1 µM, first compound 3.16 µM): 32.8%; viability, T/C (second compound 0.1 µM, first compound 10 µM): 34.1%; viability, T/C (second compound 0.316 µM, first compound 3.16 µM): 30%; viability, T/C (second compound 0.316 µM, first compound 10 µM): 31%; viability, T/C (second compound 1 µM, first compound 3.16 µM): 34.1%; viability, T/C (second compound 1 µM, first compound 10 µM): 28.2%; viability, T/C [16]: 39.1%; viability, T/C (second compound 3.16 µM, first compound 3.16 µM): 33.6%; viability, T/C (second compound 3.16 µM, first compound 10 µM): 32.3%; viability, T/C [17]: 103%; viability, T/C [18]: 66.4%; viability, T/C [19]: 72.5%; viability, T/C [20]: 43.8%; viability, T/C (second compound 10 µM, first compound 3.16 µM): 30%; viability, T/C (second compound 10 µM, first compound 10 µM): 27.4%

From PubChem BioAssay AID1918939 (Molecular Pharmacology Branch, DTP, NCI, 2023)
